The values that follow come from patent US5428013A, “Differential diagnosis and treatment of the states of growth hormone insufficiency (or deficiency) with an alpha-2-adrenergic agonist and a growth hormone releasing peptide” (priority 1992, dated 1995).

The test system of test [1] is GH secretion. The test is described as follows: Provocative tests for GH secretion in short children (clonidine, propranolol plus exercise, insulinic hypoglycemia, placebo plus GHRH, clonidine plus GHRH). The class given is in vivo. The source says: Twenty-four children (17 boys and 7 girls) with stature below the third percentile (P3), participated in the study with informed consent (parent and child). Ages of the children ranged from 7 to 13.9 years. In all but seven of the children, weight was more than or equal to P3. […] Two children had received prophylactic cranial irradiation due to brain tumors, five and three years before the study. […] All children had been previously studied for their GH insufficiency. Studies included growth velocity, bone age, classical provocative tests for GH secretion (i.e. clonidine, insulin hypoglycemia and propranolol plus exercise), plasma somatomedin C (Sm C) (Insulin Growth Factor-I (IGF-I)) analysis, and analysis of the spontaneous pattern of nocturnal GH secretion.
Studies commenced at 09.00 h after an overnight fast and bed rest and thirty minutes after the insertion of a nonthrombogenic catheter for blood withdrawal in a forearm vein. The study consisted of administering clonidine (Catapresan, Boehringer Ingelheim, Spain) orally at 150 micrograms/m^2 at time 0, followed by administering GHRH (GRF 1-29, Serono, Spain) as an intravenous bolus at 1 microgram/kg at time 60 minutes. An additional control for short children consisted of administering a placebo at time 0, followed by administering GHRH at time 60 minutes. Blood samples for GH analysis (RIA, BioMerieux, France) were taken at 0 and 60 minutes and at 15 minute intervals for one hour following GHRH administration. The mean intra-assay coefficient of variation was 5.7, 3.2 and 4.3% at mean GH concentrations of 1.5, 10 and 22 micrograms/L respectively. To avoid interassay variations, all samples from a subject were run in the same assay.
To confirm the uniqueness of such combined clonidine plus GHRH test in the differentiation of GH-deficient states, the theoretical GH responses to this test in short children were calculated on the basis of the equation obtained from the multiple regression analysis relating chronological and bone age with the amplitude of GH peaks in normal children. […] Responses between the -20 to +20% range were considered to be normals, as they fitted between the standard deviation from the mean in the group of normal children.

Test [2] concerns GH secretion. As to conditions: cited from earlier work.
Test [3] in a line: Growth velocity of short children treated with GH. As to conditions: three children treated with GH for 9 months; increased from 3 cm/yr. The class given is in vivo. The source says:
Twenty-four children (17 boys and 7 girls) with stature below the third percentile (P3), participated in the study with informed consent (parent and child). Ages of the children ranged from 7 to 13.9 years. In all but seven of the children, weight was more than or equal to P3. […] Two children had received prophylactic cranial irradiation due to brain tumors, five and three years before the study. Three children had been treated with GH for 9 months; their growth velocity increased during this therapy from 3 to 8 cm/yr. All children had been previously studied for their GH insufficiency. Studies included growth velocity, bone age, classical provocative tests for GH secretion (i.e. clonidine, insulin hypoglycemia and propranolol plus exercise), plasma somatomedin C (Sm C) (Insulin Growth Factor-I (IGF-I)) analysis, and analysis of the spontaneous pattern of nocturnal GH secretion. […] Mean (±SEM) plasma Sm C was 488±376 U/L. Mean (±SEM) growth velocity was 3.7±0.9 cm/yr.

[4] abbreviates: patient group 1, short children.
[5] abbreviates: patient group 2, short children.
[6] abbreviates: patient group 3, short children.
[7] abbreviates: patient group 4, short children.
Where [8] appears, read: patient group 5, short children.

Where no end group is shown, it is not given here.

Take `Clc1cccc(Cl)c1NC1=NCCN1` [clonidine, 2-(2,6-dichloroanilino)-2-imidazoline]: the “Share of children appearing GH-deficient on the basis of a low GH response (<10 μg/L) to the provocative test” value in the test with GH secretion [1] (24 short children, earlier work-up) came to 50%. The “Number of positive (+, >10 μg/L) GH responses” value with GH secretion [1] (setting [4]) stood at 0; with GH secretion [1] (setting [5]) it was 4; with GH secretion [1] (setting [6]), 2; in the test on GH secretion [1] (setting [7]), 3; in the test with GH secretion [1] (setting [8]), 1. Moreover, the “Number of negative (-, <10 μg/L) GH responses” value in the test with GH secretion [1] (setting [6]) is 2. The “Effect of pretreatment with clonidine on the GH response to GHRH” value in the test on GH secretion [1] (patient group 5, malnourished children) was “did not significantly enhance the GH response to GHRH”. The “Effect on GHRH-induced GH secretion” value in the test with GH secretion [2] (normal subjects, short, normal children and adults (literature)) is reported as “enhances the GH response to GHRH”.
Turning to `CN(C)C(=O)Oc1ccc[n+](C)c1` [pyridostigmine], the “Usefulness as treatment of short stature” value in the test on GH secretion [2] (literature (Ghigo 1989)) is listed as “does not represent a useful treatment of short stature”.
For the compound “GH: exogenous growth hormone given to three children for 9 months”, the “Growth velocity during GH therapy” value in test [3] came out at 8 cm/yr.
As to “GHRH: growth hormone-releasing hormone, used as GRF 1-29 (Serono, Spain), intravenous bolus (YADAIFTNSYRKVLGQLSARKLLQDIMSR; ends and bridges not checked; UniProt P01286 32-60, looked up, fragment)”, in the test on GH secretion [1] (24 short children, pretreatment with placebo), the “Number of patients with deficient GHRH-induced GH response (GH peak <10 μg/L)” value was 9 patients. The “Number of negative (-, <10 μg/L) GH responses” value with GH secretion [1] (setting [4]) turned out to be 4; with GH secretion [1] (setting [5]), 2. For the same compound, the “Number of positive (+, >10 μg/L) GH responses” value with GH secretion [1] (setting [4]) is given as 2; in the test on GH secretion [1] (setting [5]), 3; with GH secretion [1] (setting [6]), 3; in the test on GH secretion [1] (setting [7]) it was 3; in the test with GH secretion [1] (setting [8]), 3. For the same compound, the “Mean GH peak response to GHRH” value with GH secretion [1] (short children, placebo at time 0, GHRH i.v. bolus at 60 minutes) is 19.5 ± 15.7 µg/L.
